From US11440923B2, “Substituted macrocyclic indole derivatives” (Bayer Aktiengesellschaft, priority 2017, dated 2022) come the findings set out here.

Where a name gives a salt, the structure may show the parent alone.

As a reminder, the IC50 is the concentration that gives 50% inhibition. Low readings indicate higher potency, high ones lower potency.

Sequence of MCL-1 (Q07820 whole entry, looked up, stated change not applied, the tested form may be a part): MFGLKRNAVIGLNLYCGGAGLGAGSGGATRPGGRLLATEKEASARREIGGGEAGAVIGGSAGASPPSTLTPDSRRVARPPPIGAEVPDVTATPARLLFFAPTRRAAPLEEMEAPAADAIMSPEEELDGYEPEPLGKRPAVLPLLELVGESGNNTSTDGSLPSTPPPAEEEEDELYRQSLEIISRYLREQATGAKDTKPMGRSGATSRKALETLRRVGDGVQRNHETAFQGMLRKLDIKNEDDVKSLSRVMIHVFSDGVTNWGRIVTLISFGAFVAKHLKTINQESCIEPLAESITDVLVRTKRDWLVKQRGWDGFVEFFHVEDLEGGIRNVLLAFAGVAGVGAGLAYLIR

For this assay, the target named is MCL-1 (Homo sapiens (Human), UniProt Q07820, K194A/K197A/R201A). Briefly: Protein-protein interaction assay MCL-1/Noxa BH3 peptide (MCL-1 assay, TR-FRET). The class given is binding. Conditions: MCL-1 Assay IC50 (median). The essentials:
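IC50 came from a 4-parameter regression of the 665/620 nm emission ratio, normalized to DMSO controls. The mix held 1 nM MBP-fused MCL-1 (residues 173-321), a biotin-Noxa BH3 tracer and compound in Tris buffer pH 7, incubated 10 min plus 1 h at 22° C., then overnight at 4° C.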
Turning to `CCc1c2c(nn1C)C(CCC1CCOCC1)OCCCCn1c(C(=O)O)c(CCCOc3cccc4cc(F)ccc34)c3ccc(Cl)c-2c31` (single isomer, unassigned; enantiomer 2) [Example 62, (−)-4-chloro-3-ethyl-7-{3-[(6-fluoronaphthalen-1-yl)oxy]propyl}-2-methyl-15-[2-(oxan-4-yl)ethyl]-2,10,11,12,13,15-hexahydropyrazolo[4′,3′:9,10][1,6]oxazacycloundecino[8,7,6-hi]indole-8-carboxylic Acid (Enantiomer 2)], it took 120 nM to reach half-maximal inhibition (IC50).
To `Cc1c2c(nn1C)C(C)OCCCCn1c(C(=O)O)c(CCCOc3cccc4ccccc34)c3cccc-2c31` (single isomer, unassigned; stereoisomer 1) [Example 2, 2,3,15-trimethyl-7-[3-(naphthalen-1-yloxy)propyl]-2,10,11,12,13,15-hexahydropyrazolo[4′,3′:9,10][1,6]oxazacycloundecino[8,7,6-hi]indole-8-carboxylic Acid Trifluoroacetic Acid Salt (Stereoisomer 1)] belongs 1.2 nM; to `CCc1c2c(nn1C)C(Cc1ccccc1)OCCCCn1c(C(=O)O)c(CCCOc3cccc4cc(F)ccc34)c3ccc(Cl)c-2c31` (racemic) [Example 92, (rac)-(rac-15)-benzyl-4-chloro-3-ethyl-7-{3-[(6-fluoro-1-naphthyl)oxy]propyl}-2-methyl-2,10,11,12,13,15-hexahydropyrazolo[4′,3′:9,10][1,6]oxazacycloundecino[8,7,6-hi]indole-8-carboxylic Acid], 3.2 nM; to `Cc1c2c(nn1C)C(CCN1CCOCC1)OCCCCn1c(C(=O)O)c(CCCOc3cccc4cc(F)ccc34)c3ccc(Cl)c-2c31` (racemic) [Example 16, (rac)-4-chloro-7-{3-[(6-fluoronaphthalen-1-yl)oxy]propyl}-2,3-dimethyl-15-[2-(morpholin-4-yl)ethyl]-2,10,11,12,13,15-hexahydropyrazolo[4′,3′:9,10][1,6]oxazacycloundecino[8,7,6-hi]indole-8-carboxylic Acid], 2 nM.
To `CCc1c2c(nn1C)C(CCN1CCOCC1)OCCCCn1c(C(=O)O)c(CCCOc3cccc4cc(F)ccc34)c3ccc(Cl)c-2c31` (racemic) [Example 22, (rac)-4-chloro-3-ethyl-7-{3-[(6-fluoronaphthalen-1-yl)oxy]propyl}-2-methyl-15-[2-(morpholin-4-yl)ethyl]-2,10,11,12,13,15-hexahydropyrazolo[4′,3′:9,10][1,6]oxazacycloundecino[8,7,6-hi]indole-8-carboxylic Acid] belongs 1.5 nM; to `CCC1OCCCCn2c(C(=O)O)c(CCCOc3cccc4ccccc34)c3ccc(Cl)c(c32)-c2c1nn(C)c2C` (racemic) [Example 25, (rac)-4-chloro-15-ethyl-2,3-dimethyl-7-{3-[(naphthalen-1-yl)oxy]propyl}-2,10,11,12,13,15-hexahydropyrazolo[4′,3′:9,10][1,6]oxazacycloundecino[8,7,6-hi]indole-8-carboxylic Acid], 1.9 nM; to `Cc1c2c(nn1C)C(C)OCCCCn1c(C(=O)O)c(CCCOc3cccc4ccccc34)c3cccc-2c31` (single isomer, unassigned; stereoisomer 2) [Example 3, 2,3,15-trimethyl-7-[3-(naphthalen-1-yloxy)propyl]-2,10,11,12,13,15-hexahydropyrazolo[4′,3′:9,10][1,6]oxazacycloundecino[8,7,6-hi]indole-8-carboxylic Acid Trifluoroacetic Acid Salt (Stereoisomer 2)], 22 nM.
`CCc1c2c(nn1C)C(CCCN1CCOCC1)OCCCCn1c(C(=O)O)c(CCCOc3cccc4cc(F)ccc34)c3ccc(Cl)c-2c31` (racemic) [Example 65, (rac)-4-chloro-3-ethyl-7-{3-[(6-fluoronaphthalen-1-yl)oxy]propyl}-2-methyl-(15-rac)-[3-(morpholin-4-yl)propyl]-2,10,11,12,13,15-hexahydropyrazolo[4′,3′:9,10][1,6]oxazacycloundecino[8,7,6-hi]indole-8-carboxylic Acid] displayed an IC50 of 1.3 nM.
To `Cc1c2c(nn1C)C(C)OCCCCn1c(C(=O)O)c(CCCOc3cccc4ccccc34)c3cccc-2c31` (racemic) [Example 1, (rac)-2,3,15-trimethyl-7-[3-(naphthalen-1-yloxy)propyl]-2,10,11,12,13,15-hexahydropyrazolo[4′,3′:9,10][1,6]oxazacycloundecino[8,7,6-hi]indole-8-carboxylic Acid (Mixture of Stereoisomers)] belongs 2.2 nM.
In turn, `Cc1c2c(nn1C)C(CCN1CCOCC1)OCCCCn1c(C(=O)O)c(CCCOc3cccc4ccccc34)c3ccc(Cl)c-2c31` (racemic) [Example 13, (rac)-4-chloro-2,3-dimethyl-15-[2-(morpholin-4-yl)ethyl]-7-{3-[(naphthalen-1-yl)oxy]propyl}-2,10,11,12,13,15-hexahydropyrazolo[4′,3′:9,10][1,6]oxazacycloundecino[8,7,6-hi]indole-8-carboxylic Acid] returned an IC50 of 1.6 nM. The IC50 values of the last two compounds are within 1.5-fold of each other.
To `Cc1c2c(nn1C)C(CCN1CCOCC1)OCCCCn1c(C(=O)O)c(CCCOc3cccc4cc(F)ccc34)c3ccc(F)c-2c31` (single isomer, unassigned; enantiomer 2) [Example 21, 4-fluoro-7-{3-[(6-fluoronaphthalen-1-yl)oxy]propyl}-2,3-dimethyl-15-[2-(morpholin-4-yl)ethyl]-2,10,11,12,13,15-hexahydropyrazolo[4′,3′:9,10][1,6]oxazacycloundecino[8,7,6-hi]indole-8-carboxylic Acid (Enantiomer 2)] belongs 160 nM; to `CCc1c2c(nn1C)C(CCOC)OCCCCn1c(C(=O)O)c(CCCOc3cccc4cc(F)ccc34)c3ccc(Cl)c-2c31` (racemic) [Example 41, (rac)-4-chloro-3-ethyl-7-{3-[(6-fluoronaphthalen-1-yl)oxy]propyl}-(15-rac)-(2-methoxyethyl)-2-methyl-2,10,11,12,13,15-hexahydropyrazolo[4′,3′:9,10][1,6]oxazacycloundecino[8,7,6-hi]indole-8-carboxylic Acid], 0.52 nM.
To `CCc1c2c(nn1C)C(CCO)OCCCCn1c(C(=O)O)c(CCCOc3cccc4cc(F)ccc34)c3ccc(Cl)c-2c31` (racemic) [Example 44, (rac)-4-chloro-3-ethyl-7-{3-[(6-fluoronaphthalen-1-yl)oxy]propyl}-(15-rac)-(2-hydroxyethyl)-2-methyl-2,10,11,12,13,15-hexahydropyrazolo[4′,3′:9,10][1,6]oxazacycloundecino[8,7,6-hi]indole-8-carboxylic Acid] belongs 0.39 nM; to `CCc1c2c(nn1C)C(CCN1CCOCC1)OCCCCn1c(C(=O)O)c(CCCOc3cccc4cc(F)ccc34)c3ccc(F)c-2c31` (racemic) [Example 49, (rac)-3-Ethyl-4-fluoro-7-{3-[(6-fluoronaphthalen-1-yl)oxy]propyl}-2-methyl-(15-rac)-[2-(morpholin-4-yl)ethyl]-2,10,11,12,13,15-hexahydropyrazolo[4′,3′:9,10][1,6]oxazacycloundecino[8,7,6-hi]indole-8-carboxylic Acid], 0.85 nM.
To `Cc1c2c(nn1C)C(CCN1CCOCC1)OCCCCn1c(C(=O)O)c(CCCOc3cccc4ccccc34)c3ccc(F)c-2c31` (racemic) [Example 7, (rac)-4-fluoro-2,3-dimethyl-15-[2-(morpholin-4-yl)ethyl]-7-[3-(naphthalen-1-yloxy)propyl]-2,10,11,12,13,15-hexahydropyrazolo[4′,3′:9,10][1,6]oxazacycloundecino[8,7,6-hi]indole-8-carboxylic Acid] belongs 0.66 nM; to `CCc1c2c(nn1C)C(CCC1CCOCC1)OCCCCn1c(C(=O)O)c(CCCOc3cccc4cc(F)ccc34)c3ccc(Cl)c-2c31` (single isomer, unassigned; enantiomer 1) [Example 61, 4-chloro-3-ethyl-7-{3-[(6-fluoronaphthalen-1-yl)oxy]propyl}-2-methyl-15-[2-(oxan-4-yl)ethyl]-2,10,11,12,13,15-hexahydropyrazolo[4′,3′:9,10][1,6]oxazacycloundecino[8,7,6-hi]indole-8-carboxylic Acid (Enantiomer 1)], 0.46 nM.
Take `CCc1c2c(nn1C)C(CCC(C)(C)O)OCCCCn1c(C(=O)O)c(CCCOc3cccc4cc(F)ccc34)c3ccc(Cl)c-2c31` (racemic) [Example 74, (rac)-4-chloro-3-ethyl-7-{3-[(6-fluoronaphthalen-1-yl)oxy]propyl}-(15-rac)-(3-hydroxy-3-methylbutyl)-2-methyl-2,10,11,12,13,15-hexahydropyrazolo[4′,3′:9,10][1,6]oxazacycloundecino[8,7,6-hi]indole-8-carboxylic Acid]: half-maximal inhibition (IC50) required 1 nM.
The value for `COCCC1OCCCCn2c(C(=O)O)c(CCCOc3cccc4ccccc34)c3ccc(Cl)c(c32)-c2c1nn(C)c2C` (racemic) [Example 37, (rac)-4-chloro-(15-rac)-(2-methoxyethyl)-2,3-dimethyl-7-{3-[(naphthalen-1-yl)oxy]propyl}-2,10,11,12,13,15-hexahydropyrazolo[4′,3′:9,10][1,6]oxazacycloundecino[8,7,6-hi]indole-8-carboxylic Acid] was 0.48 nM.
In turn, `CCc1c2c(nn1C)C(C1CC1)OCCCCn1c(C(=O)O)c(CCCOc3cccc4cc(F)ccc34)c3ccc(Cl)c-2c31` (racemic) [Example 38, (rac)-4-chloro-(15-rac)-cyclopropyl-3-ethyl-7-{3-[(6-fluoronaphthalen-1-yl)oxy]propyl}-2-methyl-2,10,11,12,13,15-hexahydropyrazolo[4′,3′:9,10][1,6]oxazacycloundecino[8,7,6-hi]indole-8-carboxylic Acid] came in with a half-maximal inhibitory concentration (IC50) of 1.3 nM.
